Measured values: patent publication US4795743A, “2'-deamino-2'-hydroxyistamycin Bo derivatives of low toxicity” (Zaidan Hojin Biseibutsu Kagaku Kenkyu Kai, priority 1986, dated 1989)
Values after ≈ are worked out from the molar mass of the structure shown. Like-named read-outs stand apart in the source and are kept apart here.

Tests used:
[1] = tested on: Escherichia coli JR66/W677; assay: Antibacterial spectrum, standard serial dilution method; format: cell-based; details: read-out: Minimum Growth Inhibitory Concentration
[2] = tested on: Pseudomonas aeruguinosa 21-75; assay: as above; format: cell-based, Pseudomonas aeruginosa; details: 2175, Muller-Hinton medium, 37° C., 18 hours, read-out: Minimum Growth Inhibitory Concentration
[3] = tested on: Escherichia coli K-12 J5 R11-2; assay: as above; format: cell-based; details: K12J5R112, 18 h, read-out: Minimum Growth Inhibitory Concentration
[4] = tested on: Pseudomonas aeruguinosa A3; assay: as above; format: cell-based, Pseudomonas aeruginosa; details: read-out: Minimum Growth Inhibitory Concentration
mice = assay: Acute toxicity by intravenous injection in mice; details: mice, intravenous injection, 200 mg/kg
[5] = tested on: Corynebacterium bovis 1810; assay: Antibacterial spectrum, standard serial dilution method; format: cell-based; details: Corynebacterium bovis 1810; Muller-Hinton medium, 37° C., 18 hours; read-out: Minimum Growth Inhibitory Concentration
[6] = tested on: Bacillus subtilis PCI 219; assay: as above; format: cell-based; details: PCI219; Bacillus subtilis PCI 219; Muller-Hinton medium, 37° C., 18 hours; read-out: Minimum Growth Inhibitory Concentration
[7] = tested on: Bacillus subtilis NRRL B-558; assay: as above; format: cell-based; details: NRRLB558; Bacillus subtilis NRRL B-558; Muller-Hinton medium, 37° C., 18 hours; read-out: Minimum Growth Inhibitory Concentration
Sarcina lutea PCI 1001 = assay: as above; format: cell-based; details: Micrococcus luteus, read-out: Minimum Growth Inhibitory Concentration
[8] = tested on: Escherichia coli K-12 ML1410 R81; assay: as above; format: cell-based; details: K12ML1410R81, 18 h, read-out: Minimum Growth Inhibitory Concentration
[9] = tested on: Pseudomonas aeruguinosa H11; assay: as above; format: cell-based, Pseudomonas aeruginosa; details: Muller-Hinton medium, 37° C., 18 hours, read-out: Minimum Growth Inhibitory Concentration
Serratia sp. 4 = assay: as above; format: cell-based; details: Muller-Hinton medium, 37° C., 18 hours, read-out: Minimum Growth Inhibitory Concentration
[10] = tested on: Klebsiella pneumoniae 22 = 3038; assay: as above; format: cell-based; details: Klebsiella pneumoniae, 18 h, read-out: Minimum Growth Inhibitory Concentration
[11] = tested on: Pseudomonas aeruguinosa TI-13; assay: as above; format: cell-based, Pseudomonas aeruginosa; details: read-out: Minimum Growth Inhibitory Concentration
[12] = tested on: Staphylococcus epidermidis 109; assay: as above; format: cell-based; details: Staphylococcus epidermidis, 109, 18 h, read-out: Minimum Growth Inhibitory Concentration
Escherichia coli JR225 = assay: as above; format: cell-based; details: JR225, 18 h, read-out: Minimum Growth Inhibitory Concentration
Bacillus anthracis = assay: microbe, parasite or virus in culture; format: cell-based; details: 18 h, read-out: Minimum Growth Inhibitory Concentration
Proteus rettgeri GN311 = assay: Antibacterial spectrum, standard serial dilution method; format: cell-based; details: Providencia rettgeri, GN311, 18 h, read-out: Minimum Growth Inhibitory Concentration
Providencia sp. 2991 = assay: as above; format: cell-based; details: Providencia, SP.2991, 18 h, read-out: Minimum Growth Inhibitory Concentration
[13] = tested on: Pseudomonas aeruguinosa 99; assay: as above; format: cell-based, Pseudomonas aeruginosa; details: Muller-Hinton medium, 37° C., 18 hours, read-out: Minimum Growth Inhibitory Concentration
Proteus vulgaris OX19 = assay: as above; format: cell-based; details: read-out: Minimum Growth Inhibitory Concentration
[14] = tested on: Pseudomonas aeruguinosa H9; assay: as above; format: cell-based, Pseudomonas aeruginosa; details: read-out: Minimum Growth Inhibitory Concentration
Escherichia coli K-12 R5 = assay: as above; format: cell-based; details: K12R5, 18 h, read-out: Minimum Growth Inhibitory Concentration
[15] = tested on: Escherichia coli K-12 ML1630; assay: as above; format: cell-based; details: K12ML1630, E. coli K-12 ML1630, Muller-Hinton medium, 37° C., 18 hours, read-out: Minimum Growth Inhibitory Concentration
[16] = tested on: Pseudomonas aeruguinosa PST1; assay: as above; format: cell-based, Pseudomonas aeruginosa; details: Muller-Hinton medium, 37° C., 18 hours, read-out: Minimum Growth Inhibitory Concentration

| Compound | MIC [2] | MIC [3] | acute toxicity (survival, symptoms) (mice) | MIC [5] | MIC [6] | MIC [7] | MIC [8] | MIC [9] | MIC (Serratia sp. 4) | MIC [10] | MIC [12] | MIC (Escherichia coli JR225) | MIC (Bacillus anthracis) | MIC (Proteus rettgeri GN311) | MIC (Providencia sp. 2991) | MIC [13] | MIC (Escherichia coli K-12 R5) | MIC [15] | MIC [16] | further results |
| --- | --- | --- | --- | --- | --- | --- | --- | --- | --- | --- | --- | --- | --- | --- | --- | --- | --- | --- | --- | --- |
| CNCC1CCC(O)C(OC2C(N)CC(OC)C(N(C)C(=O)CN)C2O)O1 (centres unmarked) [Compound No. 1, 2'-Deamino-2'-hydroxyistamycin B] | > 100 µg/mL | 1.56 µg/mL (≈ 4 µM) | survived without showing any sympton of toxicity | 3.13 µg/mL (≈ 8.02 µM) | 3.13 µg/mL (≈ 8.02 µM) | 3.13 µg/mL (≈ 8.02 µM) | 6.25 µg/mL (≈ 16 µM) | > 100 µg/mL | > 100 µg/mL | 12.5 µg/mL (≈ 32 µM) | 6.25 µg/mL (≈ 16 µM) | 3.13 µg/mL (≈ 8.02 µM) | 12.5 µg/mL (≈ 32 µM) | 6.25 µg/mL (≈ 16 µM) | 12.5 µg/mL (≈ 32 µM) | > 100 µg/mL | 3.13 µg/mL (≈ 8.02 µM) | 6.25 µg/mL (≈ 16 µM) | 100 µg/mL (≈ 256 µM) | MIC ([1]; E. coli JR66/W677, Muller-Hinton medium, 37° C., 18 hours): 3.13 µg/mL (≈ 8.02 µM); MIC ([4]; Pseudomonas, A3, 18 h): 6.25 µg/mL (≈ 16 µM); MIC (Sarcina lutea PCI 1001; PCI1001, Sarcina lutea PCI 1001, Muller-Hinton medium, 37° C., 18 hours): 3.13 µg/mL (≈ 8.02 µM); MIC ([11]; TI13, Pseudomonas aeruguinosa TI-13, Muller-Hinton medium, 37° C., 18 hours): 100 µg/mL (≈ 256 µM); MIC (Proteus vulgaris OX19; Proteus vulgaris OX19, Muller-Hinton medium, 37° C., 18 hours): 3.13 µg/mL (≈ 8.02 µM); MIC ([14]; Pseudomonas aeruguinosa H9, Muller-Hinton medium, 37° C., 18 hours): > 100 µg/mL |
| CNCC1CCC(O)C(OC2C(N)CC(O)C(N(C)C(=O)CN)C2O)O1 (centres unmarked) [Compound No. 2, 2'-Deamino-2'-hydroxy-3-O-demethylistamycin B] | 25 µg/mL (≈ 66.4 µM) | 1.56 µg/mL (≈ 4.14 µM) | survived without showing any sympton of toxicity | 3.13 µg/mL (≈ 8.31 µM) | 3.13 µg/mL (≈ 8.31 µM) | 3.13 µg/mL (≈ 8.31 µM) | 6.25 µg/mL (≈ 16.6 µM) | 25 µg/mL (≈ 66.4 µM) | 25 µg/mL (≈ 66.4 µM) | 6.25 µg/mL (≈ 16.6 µM) | 1.56 µg/mL (≈ 4.14 µM) | 1.56 µg/mL (≈ 4.14 µM) | 1.56 µg/mL (≈ 4.14 µM) | 1.56 µg/mL (≈ 4.14 µM) | 6.25 µg/mL (≈ 16.6 µM) | 50 µg/mL (≈ 133 µM) | 3.13 µg/mL (≈ 8.31 µM) | 6.25 µg/mL (≈ 16.6 µM) | 25 µg/mL (≈ 66.4 µM) | MIC ([1]; JR66/W677, 18 h): 6.25 µg/mL (≈ 16.6 µM); MIC ([4]; Pseudomonas aeruguinosa A3, Muller-Hinton medium, 37° C., 18 hours): 0.39 µg/mL (≈ 1.04 µM); MIC (Sarcina lutea PCI 1001; PCI1001, 18 h): 1.56 µg/mL (≈ 4.14 µM); MIC ([11]; Pseudomonas, TI13, 18 h): 12.5 µg/mL (≈ 33.2 µM); MIC (Proteus vulgaris OX19; Proteus vulgaris, OX19, 18 h): 1.56 µg/mL (≈ 4.14 µM); MIC ([14]; Pseudomonas, H9, 18 h): 12.5 µg/mL (≈ 33.2 µM) |
